The values below come from patent US20250276994A1, “CAP ANALOG FOR THE 5'-END OF EUKARYOTIC MESSENGER RNAS” (WESTFÄLISCHE WILHELMS-UNIVERSITÄT, priority 2021, published 2025).

Data set [1] in a line: Irradiation of caged nucleosides, conversion estimated by HPLC. Format: physicochemical. Particulars: 450 nm; H2O:ACN (1:1). On the procedure: Conversions from caged compounds to uncaged compounds were estimated by integrating the peaks of a UV-spectrum that resulted from the HPLC analysis (Agilent infinity 1260).
When irradiating isolated N2-modified compounds, a final volume of 10 μL in double distilled water was irradiated using a LED (λmax=365 nm/405 nm/420 nm) and then analyzed by RP-HPLC.
A 500 μM solution of the compound 15, nitropiperonylmethyl fused via a carbamate moiety to guanosine (denoted “NPOM guanosine” or “caged guanosine”), in water/acetone/acetonitrile was irradiated in a 10 μL volume with either 405 nm for 20 s, 40 s or 60 s or with 365 nm for 5 s, 10 s or 20 s, respectively, using a LED power (input 3W and output 147 mW/cm^2). HPLC analysis was performed as described above.
Samples of the adenosine fused via a carbamate moiety to 7-(diethylamino)-4-(hydroxymethyl)-coumarin (DEACM) were irradiated with 450 nm. […] The peak at 21.1 min corresponds to the obtained compound and the peaks at 11.1 and 21.9 min correspond to the photo-cleavage products adenosine and DEACM-OH, respectively.

In data set [2] the test system is HeLa cells. Nature of the data set: Translation and irradiation in HeLa cells of capped GLuc-mRNA (luminescence). Format: cell-based. On the procedure:
HeLa cells were transferred to a 96 well plate 20 h prior transfection. 30.000 cells/well were cultivated in growth Media (MEM, 10% FCS, 1% glutamine, 1% Penicillin, 1% Streptomycine, […] non-essential aminoacids). For transfection the growth media was exchanged for MEM-media with 0.6 μL Metafectene® Pro (0.3 μL) and 100 ng mRNA was added per well. 6 h after transfection of the cells the media was exchange by MEM-media, followed by irradiation and another MEM-media exchange. After 24 h post transfection the supernatant in the wells was used for further luminescence measurements. Values of the ApppG capped mRNA represent cap independent translation and were therefore subtracted from the other values.
In cell translation and irradiation in cell culture of mammalian HeLa cells was performed as described above. GLuc mRNA capped with the photocleavable 5′-cap analog of formula (12) (“DMNB”) was used and the commercial non-modified cap analog denoted “m^7GpppG” (Jena Bioscience) was used as a control. HeLa cells were either transfected with the DMNB-m^7GpCH2ppG capped mRNA (irradiated and non-irradiated before transfection) or with the natural capped mRNA (irradiated and non-irradiated before transfection). Irradiation of the mRNA containing the natural cap was performed (5 V, 600 mA) with 365 nm for 30 seconds to evaluate the resulting influence on translational efficiency. DMNB-m^7GpCH2ppG capped mRNA was irradiated in the same way or with 405 nm for 60 seconds. The ApppG capped mRNA, which is not recognized by the translation initiation factor served as negative control, which is substracted from the other samples as it represents background activity. The values were normalized to the non-irradiated m^7GpppG capped sample (100%). The experiment was performed in triplicates.
The luminescence measurement of cell culture media after translation in cells transfected with modified and non-modified GLuc mRNA was repeated using irradiation with 365 nm/405 nm for different periods of time. HeLa cells were either transfected with the GLuc mRNA capped with the photocleavable 5′-cap analog of formula (12) denoted “DMNB-m^7GpCH2ppG capped mRNA” or with the natural m^7GpppG capped mRNA. Cells transfected with the natural capped mRNA were irradiated (5 V, 600 mA) with 365 nm/405 nm for 30 s or 60 s to evaluate the resulting influence on translational efficiency. Cells transfected with DMNB-m^7GpCH2ppG capped mRNA were irradiated in the same way. The ApppG capped mRNA, which is not recognized by the translation initiation factor served as negative control, which is substracted from the other samples as it represents background activity. The values were normalized to the non-irradiated cells with m^7GpppG capped mRNA (100%). The experiment was performed in triplicates.
Luminescence measurement of cell culture media after translation of transfected modified and non-modified GLuc mRNA in cells. HeLa cells were either transfected with the NPOM-m^7GpCH2ppG capped mRNA or with the natural m^7GpppG capped mRNA. Cells transfected with the natural capped mRNA were irradiated (5 V, 600 mA) with 365 nm/405 nm for different periods of time to evaluate the resulting influence on translational efficiency. Cells transfected with NPOM-m^7GpCH2ppG capped mRNA were irradiated in the same way. The ApppG capped mRNA, which is not recognized by the translation initiation factor served as negative control, which is substracted from the other samples as it represents background activity. […]

Data set [3] deals with Reticulocyte Lysate. Kind of data set: In vitro translation of capped FLuc-mRNA and luminescence measurement. Format: biochemical. On the procedure:
In vitro translation was performed using a eukaryotic cell free protein expression kit from Reticulocyte Lysate (Invitrogen). Experiments were performed in 12.5 μL total volume containing 20 ng of the corresponding FLuc-mRNAs, 50 μM L-methionine and 150 mM potassium acetate. Samples were mixed with 8.5 μL of the reticulocyte lysate and incubated for 90 min at 30° C. Afterwards, 2 μL of the respective translation mix were used in subsequent luminescence measurement. The translation efficiency of the reporter mRNAs was assessed in a luciferase assay using Beetle-juice Luciferase Assay Firefly (pjk). Luciferase activity was determined by adding 50 μL freshly prepared substrate solution to the translation mixture. Luminescence was monitored using a Tecan Infinite® m1000pro microplate reader with an acquisition time of 3 s (duration of signal acquisition).
The photocleavable 5′-cap analog of formula (7) was used for in vitro transcription to make FLuc mRNA as described above. This was used for in vitro translation and Luminescence measurement as described above. The commercial non-modified cap analog denoted “m^7GpppG” (Jena Bioscience) was used as positive control. Samples were irradiated for 30 seconds. The ApppG capped mRNA, which is not recognized by the translation initiation factor served as negative control, which is substracted from the other samples as it represents background activity. The experiment was performed in quadruplicates. The FLuc-mRNA capped with the photocleavable 5′-cap analog of formula (7) is denoted “ONB”.
The in vitro translation assay and luminescence measurement was performed as described above using the photocleavable 5′-cap analog of formula (12). The capped mRNA was denoted “DMNB-m^7GpCH2ppG capped FLuc-mRNA”. Samples were irradiated for 30 seconds (365 nm) or 60 seconds (405 nm). The commercial non-modified cap analog denoted “m^7GpppG” (Jena Bioscience) was used as positive control and all other samples were normalized to it. The ApppG capped mRNA, which is not recognized by the translation initiation factor served as negative control, which is substracted from the other samples as it represents background activity. The experiment was performed in triplicates, except *DMNB-m7GpCH2ppG (365 nm) which was a single determination.
The in vitro translation assay in reticulocyte lysate and luminescence measurement was performed as described above using m^7GpppG capped FLuc-mRNA caged with the photocleavable 5′-cap analog of formulas (22) and (25) (denoted “DMNB m^7GpppG” and “NPOM m^7GpppG”). Samples were irradiated for 30 seconds at 365 nm. The ApppG capped mRNA, which is not recognized by the translation initiation factor served as negative control, which was substracted from the other samples as it represents background activity. The values were normalized to the non-irradiated sample with m^7GpppG capped mRNA (100%). The experiment was performed in triplicates.
The in vitro translation assay in reticulocyte lysate and luminescence measurement was performed as described above using m^7GpppG capped FLuc-mRNA with modified nucleotides m^5C and N^1methyl-pseudouridine caged with the photocleavable 5′-cap analog of formulas (22) and (25) (denoted “DMNB m^7GpppG mod” and “NPOM m^7GpppG mod”). Samples were irradiated for 30 seconds at 365 nm. The ApppG capped mRNA, which is not recognized by the translation initiation factor served as negative control, which was substracted from the other samples as it represents background activity. The values were normalized to the non-irradiated sample with m^7GpppG capped mRNA (100%). The experiment was performed in triplicates.

The target of data set [4] is T1, T7 RNA polymerase (Escherichia phage T7, UniProt P00573).
T1 construct: purchased Thermo Scientific
Nature of the data set: In vitro transcription of GLuc mRNA with cap analogs, gel analysis. Format: biochemical. Here is the method: First, the DNA sequence coding for eGFP, Firefly luciferase (FLuc) or Gaussia luciferase (GLuc) mRNAs were amplified from pmRNA-vectors containing the respective sequence. After purification (NucleoSpin Gel and PCR Clean-up, Macherey-Nagel), the resulting linear dsDNA was used as template (200 ng) for in vitro T7 transcription performed in transcription buffer (40 mM Tris/HCl, 25 mM NaCl, 8 mM MgCl2, 2 mM spermidine(HCl)3) by adding either a A/C/UTP (0.5 mM) mix or a mix with modified nucleotides (A/m^5C/N^1-methylpseudo-UTP) (0.5 mM), GTP (0.25 mM), GpppG, m7GpppG, ApppG, DMNB or NPOM cap analog (1 mM), T7 RNA polymerase (50 U) (Thermo Scientific) and pyrophosphatase (0.1 U) (Thermo Scientific) for 4 h at 37° C. Remaining DNA template was digested in presence of 2 U DNase I for 1 h at 37° C. and then mRNAs were purified using the RNA Clean & Concentrator™-5 Kit (Zymo Research). To digest non-capped RNAs, 10 U of the RNA 5′-polyphosphatase (Epicentre) as well as the supplied reaction buffer were added to purified mRNAs. After an incubation period of 30 min at 37° C., 0.5 U of the 5′-3′ exoribonuclease XRN1 (NEB) and MgCl2 (5 mM) were added. The reaction mixture was incubated for 60 min at 37° C. Subsequently, capped mRNAs were purified using the RNA Clean & Concentrator™-5 Kit (Zymo Research).
The photocleavable 5′-cap analogs of formulas (12) and (18) were used for in vitro transcription of GLuc mRNA as described above and analysed via agarose gel electrophoresis.
“M” denotes Riboruler low range RNA ladder.

Molecules are shown by their SMILES.

T1 sequence (P00573 whole entry): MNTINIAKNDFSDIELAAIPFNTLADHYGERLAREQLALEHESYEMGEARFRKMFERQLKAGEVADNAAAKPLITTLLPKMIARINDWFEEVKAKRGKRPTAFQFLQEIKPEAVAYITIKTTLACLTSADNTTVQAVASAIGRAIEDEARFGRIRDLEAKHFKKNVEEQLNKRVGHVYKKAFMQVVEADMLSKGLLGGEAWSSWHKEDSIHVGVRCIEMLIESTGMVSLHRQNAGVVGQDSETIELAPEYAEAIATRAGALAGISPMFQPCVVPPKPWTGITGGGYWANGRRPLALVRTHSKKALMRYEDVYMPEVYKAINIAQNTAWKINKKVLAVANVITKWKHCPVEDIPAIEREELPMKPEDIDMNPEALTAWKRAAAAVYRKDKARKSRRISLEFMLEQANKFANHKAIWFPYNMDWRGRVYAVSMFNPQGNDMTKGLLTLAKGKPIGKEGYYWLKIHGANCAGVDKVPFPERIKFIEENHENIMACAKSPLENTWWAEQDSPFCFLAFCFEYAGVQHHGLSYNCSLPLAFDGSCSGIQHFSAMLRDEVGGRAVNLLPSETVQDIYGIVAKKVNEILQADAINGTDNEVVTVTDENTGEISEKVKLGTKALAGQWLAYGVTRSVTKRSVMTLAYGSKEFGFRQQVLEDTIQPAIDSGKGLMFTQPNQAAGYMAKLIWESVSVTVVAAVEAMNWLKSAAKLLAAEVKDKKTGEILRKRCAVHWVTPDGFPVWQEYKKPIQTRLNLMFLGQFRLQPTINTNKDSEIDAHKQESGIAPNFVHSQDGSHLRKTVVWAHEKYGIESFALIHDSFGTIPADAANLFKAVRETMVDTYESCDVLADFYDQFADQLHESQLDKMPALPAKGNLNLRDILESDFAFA

Turning to `CCN(CC)c1ccc2c(COC(=O)Nc3ncnc4c3ncn4[C@@H]3O[C@H](CO)[C@H](O)C3O)cc(=O)oc2c1` (stereo partly drawn), in data set [1], the “photo-cleavage upon irradiation (HPLC)” value is given as “photocleavable”.

As for `C[n+]1cn([C@@H]2O[C@H](COP(=O)(O)CP(=O)(O)OP(=O)(O)OC[C@H]3O[C@@H](n4cnc5c(=O)[nH]c(N)nc54)C(O)C3O)C(O)C2O)c2nc(NC(=O)OCc3ccccc3[N+](=O)[O-])[nH]c(=O)c21` (stereo partly drawn) [compound 7, P1-(N^2-(2-Nitrobenzyl)oxycarbonyl-7-methylguanosin-5′-yl)-P3-guanosin-5′-yl 1,2-methylenetriphosphate], the “translation efficiency (luminescence of cell supernatant)” value in data set [2] (differently capped GLuc mRNAs, normalized to m^7GpppG, single determination) was “impacts the translation efficiency in an inhibiting way”. For the same molecule, the “in vitro translation (luminescence) after irradiation” value in data set [3] (capped FLuc-mRNA, irradiated for 30 seconds) is recorded as “partially restored”. In addition, the “in vitro translation (luminescence), non-irradiated” value in data set [3] (capped FLuc-mRNA, non-irradiated, normalized to m^7GpppG capped mRNA) is “successfully inhibited to a high degree”.

Consider `CC(OC(=O)Nc1nc2c(c(=O)[nH]1)[n+](C)cn2[C@@H]1O[C@H](COP(=O)(O)CP(=O)(O)OP(=O)(O)OC[C@H]2O[C@@H](n3cnc4c(=O)[nH]c(N)nc43)C(O)C2O)C(O)C1O)c1cc2c(cc1[N+](=O)[O-])OCO2` (stereo partly drawn) [compound 18, P1-(N^2-(1-(6-nitrobenzo[d][1,3]dioxol-5-yl)ethyl)oxycarbonyl-7-methylguanosin-5′-yl)-P3-guanosin-5′-yl 1,2-methylenetriphosphate], for which the “translation in cells (luminescence) after irradiation of the cells” value in data set [2] (GLuc mRNA, transfected cells irradiated 15 s, 25 s or 30 s, increase at 365 nm) is reported as “significant increase of translation”. Moreover, the “incorporation of cap analog into RNA” value in data set [4] is recorded as “incorporated into the RNA”.

Take `CC(OC(=O)Nc1nc2c(c(=O)[nH]1)[n+](C)cn2[C@@H]1O[C@H](COP(=O)(O)OP(=O)(O)OP(=O)(O)OC[C@H]2O[C@@H](n3cnc4c(=O)[nH]c(N)nc43)C(O)C2O)C(O)C1O)c1cc2c(cc1[N+](=O)[O-])OCO2` (stereo partly drawn) [compound 25, P1-(N^2-(1-(6-nitrobenzo[d][1,3]dioxol-5-yl)ethyl)oxycarbonyl-7-methylguanosin-5′-yl)-P3-guanosin-5′-yl triphosphate]: the “in vitro translation (luminescence) after irradiation” value is reported as “marked increase of translation” in data set [3] (capped FLuc-mRNA with modified nucleotides m^5C and N^1methyl-pseudouridine, 30 seconds at 365 nm); “marked increase of translation” in data set [3] (capped FLuc-mRNA, regular nucleotides, 30 seconds at 365 nm). As to `Cn1c[n+]([C@@H]2O[C@H](COP(=O)(O)OP(=O)([O-])OP(=O)(O)OC[C@H]3O[C@@H](n4cnc5c(=O)[nH]c(N)nc54)[C@H](O)[C@@H]3O)[C@@H](O)[C@H]2O)c2nc(N)[nH]c(=O)c21` [m^7GpppG, reference compound], the “incorporation of cap analog into RNA” value in data set [4] is listed as “incorporated into the RNA”.
